Our source for the IC50 values is patent US20250129078A1, “ERBB2 INHIBITORS” (Cogent Biosciences, Inc., priority 2023, published 2025).

In general, IC50 refers to the point on the concentration scale where inhibition reaches its midpoint. The low end stands for inhibition by little substance, the high end for a need for much substance.

The target in this assay is EGFR WT (Homo sapiens (Human), UniProt P00533). Briefly: ErbB enzyme assay (CisBio HTRF-KinEASE-TK), EGFR WT. The format is biochemical. As to conditions: ATP at Km (25 μM), 1 h incubation. How it is done:
In vitro enzyme assays based on CisBio HTRF-KinEASE-TK technology were used to determine compound potencies. […]. Compounds were prepared as a three-fold serial dilution in DMSO and added to the assay to give the appropriate final concentration. After a 1 h incubation at ambient temperature, the reaction was quenched by adding 10 μL of 62.5 nM Sa-XL665 and 0.25×TK-Ab-Cryptate in HTRF detection buffer (all from CisBio, part of cat #62TKOPEC). After another 1 h incubation at ambient temperature, the extent of substrate phosphorylation was determined using a PerkinElmer EnVision multimode plate reader via time-resolved fluorescence dual wavelength detection. The percent of control (POC) was calculated using the ratio of emission at […] to the emission at 620 nm. One hundred POC was determined using DMSO only controls (no test compounds present) and zero POC was determined using pre-quenched controls reactions. A 4-parameter logistic equation was fit to the POC values as a function of the test compound concentration and the IC50 value was determined as the point where the curve crossed 50 POC.
(Time-resolved FRET reads energy transfer from a long-lived donor to a nearby acceptor.)

Structures can show the parent of a compound that is named as a salt.

Chain of EGFR WT (P00533 25-1210): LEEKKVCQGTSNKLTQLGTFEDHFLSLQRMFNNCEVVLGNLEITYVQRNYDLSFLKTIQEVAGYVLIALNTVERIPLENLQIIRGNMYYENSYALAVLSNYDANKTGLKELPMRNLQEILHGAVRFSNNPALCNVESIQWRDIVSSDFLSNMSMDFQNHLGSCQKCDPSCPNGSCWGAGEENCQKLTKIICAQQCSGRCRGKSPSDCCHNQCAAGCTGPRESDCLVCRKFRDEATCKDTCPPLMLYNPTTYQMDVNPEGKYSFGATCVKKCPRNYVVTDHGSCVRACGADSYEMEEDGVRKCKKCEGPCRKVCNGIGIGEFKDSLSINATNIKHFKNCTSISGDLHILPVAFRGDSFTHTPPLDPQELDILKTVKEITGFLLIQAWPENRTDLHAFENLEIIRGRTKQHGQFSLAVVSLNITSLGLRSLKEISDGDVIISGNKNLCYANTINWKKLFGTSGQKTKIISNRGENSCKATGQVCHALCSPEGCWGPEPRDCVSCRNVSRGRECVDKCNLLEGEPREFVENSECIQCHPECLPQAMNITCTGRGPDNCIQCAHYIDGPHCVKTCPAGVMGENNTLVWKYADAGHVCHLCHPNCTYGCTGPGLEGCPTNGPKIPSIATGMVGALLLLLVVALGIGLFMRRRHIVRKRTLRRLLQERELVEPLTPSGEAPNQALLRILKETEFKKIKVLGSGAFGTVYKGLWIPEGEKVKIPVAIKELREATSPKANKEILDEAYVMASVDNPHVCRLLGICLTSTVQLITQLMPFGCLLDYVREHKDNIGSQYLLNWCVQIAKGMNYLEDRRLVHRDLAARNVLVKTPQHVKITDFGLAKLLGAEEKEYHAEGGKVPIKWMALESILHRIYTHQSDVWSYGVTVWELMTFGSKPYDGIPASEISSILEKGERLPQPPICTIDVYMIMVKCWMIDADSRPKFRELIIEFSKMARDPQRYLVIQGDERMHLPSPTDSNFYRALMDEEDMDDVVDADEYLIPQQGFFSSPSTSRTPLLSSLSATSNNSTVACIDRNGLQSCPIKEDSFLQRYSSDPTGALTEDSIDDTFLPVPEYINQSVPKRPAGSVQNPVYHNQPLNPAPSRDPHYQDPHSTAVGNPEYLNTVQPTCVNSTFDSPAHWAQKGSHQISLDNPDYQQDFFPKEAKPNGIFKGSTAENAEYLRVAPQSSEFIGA

For the compound `Cc1cc(Nc2ncnc3cnc(N4CCN(C(=O)/C=C/Cn5cccn5)CC4)nc23)ccc1Oc1ccc2c(c1)nnn2C` [Compound 233, (E)-1-(4-(8-((3-methyl-4-((1-methyl-1H-benzo[d][1,2,3]triazol-5-yl)oxy)phenyl)amino)pyrimido[5,4-d]pyrimidin-2-yl)piperazin-1-yl)-4-(1H-pyrazol-1-yl)but-2-en-1-one], the IC50 is ≥ 1000 nM.

The compound `C=CC(=O)N[C@]1(C)CCN(c2ccc3ncnc(Nc4ccc(Oc5ccc6c(c5)nnn6C)c(C)c4)c3n2)C1` [Compound 263, (R)-N-(3-methyl-1-(4-((3-methyl-4-((1-methyl-1H-benzo[d][1,2,3]triazol-5-yl)oxy)phenyl)amino)pyrido[3,2-d]pyrimidin-6-yl)pyrrolidin-3-yl)acrylamide] showed an IC50 of 100 to 500 nM.

The compound `C=CC(=O)N[C@@H]1CCN(c2ccc3ncnc(Nc4ccc(Oc5ccc6c(c5)nnn6C)c(C)c4F)c3n2)CC1(C)C` [Compound 344, (R)-N-(1-(4-((2-fluoro-3-methyl-4-((1-methyl-1H-benzo[d][1,2,3]triazol-5-yl)oxy)phenyl)amino)pyrido[3,2-d]pyrimidin-6-yl)-3,3-dimethylpiperidin-4-yl)acrylamide] gave an IC50 of 100 to 500 nM.

Take `C=CC(=O)N[C@@H]1C[C@H](C)CN(c2ncc3ncnc(Nc4ccc(Oc5ccc6c(c5)nnn6C)c(C)c4F)c3n2)C1` (single isomer, unassigned) [Compound 203]: the IC50 is ≥ 1000 nM.

Consider `C=CC(=O)N1C[C@@H](N(C)c2ccc3ncnc(Nc4ccc(Oc5ccc6c(c5)nnn6C)c(C)c4F)c3n2)CC[C@H]1C` [Compound 352, 1-((2R,5S)-5-((4-((2-fluoro-3-methyl-4-((1-methyl-1H-benzo[d][1,2,3]triazol-5-yl)oxy)phenyl)amino)pyrido[3,2-d]pyrimidin-6-yl)(methyl)amino)-2-methylpiperidin-1-yl)prop-2-en-1-one], for which the IC50 lay in the range of 100 to 500 nM.

Regarding `C=CC(=O)N1CCN(c2nc3c(Nc4ccc(Oc5ccc6c(c5)nnn6C)c(C)c4)ncnc3cc2OC)CC1` [Compound 98, 1-(4-(7-methoxy-4-((3-methyl-4-((1-methyl-1H-benzo[d][1,2,3]triazol-5-yl)oxy)phenyl)amino)pyrido[3,2-d]pyrimidin-6-yl)piperazin-1-yl)prop-2-en-1-one], the IC50 was < 50 nM.

On to `C=CC(=O)N1CCN(c2ncc3ncnc(Nc4cc(F)c(Oc5ccc6c(c5)nnn6C)c(Cl)c4)c3n2)C[C@H]1C` [Compound 194, (R)-1-(4-(8-((3-chloro-5-fluoro-4-((1-methyl-1H-benzo[d][1,2,3]triazol-5-yl)oxy)phenyl)amino)pyrimido[5,4-d]pyrimidin-2-y1)-2-methylpiperazin-1-yl)prop-2-en-1-one], for which the IC50 is < 50 nM.

As for `C=CC(=O)N1C(C)(C)CC(c2ccc3ncnc(Nc4ccc(Oc5ccc6c(c5)nnn6C)c(C)c4)c3n2)CC1(C)C` [Compound 399, 1-(2,2,6,6-tetramethyl-4-(4-((3-methyl-4-((1-methyl-1H-benzo[d][1,2,3]triazol-5-yl)oxy)phenyl)amino)pyrido[3,2-d]pyrimidin-6-yl)piperidin-1-yl)prop-2-en-1-one], the IC50 was ≥ 1000 nM.

On to `C=CC(=O)N1CCN(c2ccc3ncnc(Nc4ccc(Oc5ccc6c(c5)nnn6C)c(C)c4)c3n2)CC12CC2` [Compound 74, 1-(7-(4-((3-methyl-4-((1-methyl-1H-benzo[d][1,2,3]triazol-5-yl)oxy)phenyl)amino)pyrido[3,2-d]pyrimidin-6-yl)-4,7-diazaspiro[2.5]octan-4-yl)prop-2-en-1-one], for which the IC50 was < 50 nM.

For `C=CC(=O)N1CCN(c2ncc3ncnc(Nc4ccc(Oc5cnc6c(c5)ncn6C)c(C)c4F)c3n2)CC1` [Compound 118, 1-(4-(8-((2-fluoro-3-methyl-4-((3-methyl-3H-imidazo[4,5-b]pyridin-6-yl)oxy)phenyl)amino)pyrimido [5,4-d]pyrimidin-2-y1)piperazin-1-yl)prop-2-en-1-one], the IC50 was < 50 nM.

As to `C=CC(=O)N1CC[C@H](N(C)c2ncc3ncnc(Nc4ccc(Oc5ccc6c(c5)nnn6C)c(C)c4)c3n2)C1` [Compound 131, (S)-1-(3-(methyl(8-((3-methyl-4-((1-methyl-1H-benzo[d][1,2,3]triazol-5-yl)oxy)phenyl)amino)pyrimido[5,4-d]pyrimidin-2-yl)amino)pyrrolidin-1-yl)prop-2-en-1-one], the IC50 was < 50 nM.

The compound `C=CC(=O)N1CCN(c2ccc3ncnc(Nc4cc(C)c(Oc5cc(F)c6c(c5)ncn6C)cc4OC)c3n2)C[C@H]1C` [Compound 310, (R)-1-(4-(4-((4-((7-fluoro-1-methyl-1H-benzo[d]imidazol-5-yl)oxy)-2-methoxy-5-methylphenyl)amino)pyrido[3,2-d]pyrimidin-6-yl)-2-methylpiperazin-1-yl)prop-2-en-1-one] returned an IC50 of 100 to 500 nM.

For `C=CC(=O)N1CC2CCC(C1)N2c1ccc2ncnc(Nc3ccc(Oc4ccc5c(c4)nnn5C)c(C)c3)c2n1` [Compound 71, 1-(8-(4-((3-methyl-4-((1-methyl-1H-benzo[d][1,2,3]triazol-5-yl)oxy)phenyl)amino)pyrido[3,2-d]pyrimidin-6-yl)-3,8-diazabicyclo[3.2.1]octan-3-yl)prop-2-en-1-one], the IC50 is < 50 nM.

`C=CC(=O)N1CCN(c2ccc3ncnc(Nc4ccc(Oc5ccc6c(c5)nnn6C)c(C)c4)c3n2)C[C@@H]1C` [Compound 72, (S)-1-(2-methyl-4-(4-((3-methyl-4-((1-methyl-1H-benzo[d][1,2,3]triazol-5-yl)oxy)phenyl)amino)pyrido[3,2-d]pyrimidin-6-yl)piperazin-1-yl)prop-2-en-1-one] registered an IC50 of 100 to 500 nM.

With `C=CC(=O)N[C@H]1CN(c2ccc3ncnc(Nc4ccc(Oc5ccc6c(c5)nnn6C)c(C)c4F)c3n2)C[C@@H]1F` [Compound 300, N-((3S,4S)-4-fluoro-1-(4-((2-fluoro-3-methyl-4-((1-methyl-1H-benzo[d][1,2,3]triazol-5-yl)oxy)phenyl)amino)pyrido[3,2-d]pyrimidin-6-yl)pyrrolidin-3-yl)acrylamide], the IC50 was in the range of 100 to 500 nM.

`C=C(F)C(=O)N1CC=C(c2ccc3ncnc(Nc4ccc(Oc5ccc6c(c5)nnn6C)c(C)c4)c3n2)C1` [Compound 403, 2-fluoro-1-(3-(4-((3-methyl-4-((1-methyl-1H-benzo[d][1,2,3]triazol-5-yl)oxy)phenyl)amino)pyrido[3,2-d]pyrimidin-6-yl)-2,5-dihydro-1H-pyrrol-1-yl)prop-2-en-1-one] had an IC50 of 50 to 100 nM.

For `C=CC(=O)N1CCC(Oc2ncc3ncnc(Nc4ccc(Oc5cc(F)c6c(c5)ncn6C)c(C)c4)c3n2)CC1` [Compound 381, 1-(4-((8-((4-((7-fluoro-1-methyl-1H-benzo[d]imidazol-5-yl)oxy)-3-methylphenyl)amino)pyrimido[5,4-d]pyrimidin-2-yl)oxy)piperidin-1-yl)prop-2-en-1-one], the IC50 is < 50 nM.

In the case of `C=C(F)C(=O)N1C2C=C(c3ccc4ncnc(Nc5ccc(Oc6ccc7c(c6)nnn7C)c(C)c5)c4n3)CC1CCC2` (centres unmarked) [Compound 406, 2-fluoro-1-(3-(4-((3-methyl-4-((1-methyl-1H-benzo[d][1,2,3]triazol-5-yl)oxy)phenyl)amino)pyrido[3,2-d]pyrimidin-6-yl)-9-azabicyclo[3.3.1]non-2-en-9-yl)prop-2-en-1-one trifluoroacetate], the IC50 is ≥ 1000 nM.

The compound `C=CC(=O)N[C@@]1(C)CCN(c2ncc3ncnc(Nc4ccc(Oc5ccc6c(c5)nnn6C)c(C)c4)c3n2)C1` [Compound 145, (S)-N-(3-methyl-1-(8-((3-methyl-4-((1-methyl-1H-benzo[d][1,2,3]triazol-5-yl)oxy)phenyl)amino)pyrimido[5,4-d]pyrimidin-2-yl)pyrrolidin-3-yl)acrylamide] showed an IC50 of 100 to 500 nM.

`C=CC(=O)N[C@]1(C)CCN(c2ncc3ncnc(Nc4ccc(Oc5ccc6c(c5)nnn6C)c(C)c4)c3n2)C1` [Compound 144, (R)-N-(3-methyl-1-(8-((3-methyl-4-((1-methyl-1H-benzo[d][1,2,3]triazol-5-yl)oxy)phenyl)amino)pyrimido[5,4-d]pyrimidin-2-yl)pyrrolidin-3-yl)acrylamide]: the IC50 is < 50 nM.

`C=CC(=O)N1CCN(c2ncc3ncnc(Nc4ccc(Oc5ccc6c(c5)nnn6C)c(C)c4)c3n2)C[C@H]1COC` [Compound 120, (S)-1-(2-(methoxymethyl)-4-(8-((3-methyl-4-((1-methyl-1H-benzo[d][1,2,3]triazol-5-yl)oxy)phenyl)amino)pyrimido[5,4-d]pyrimidin-2-y1)piperazin-1-yl)prop-2-en-1-one] displayed an IC50 of 50 to 100 nM.

Compound `C=CC(=O)N1CCN(c2ccc3ncnc(Nc4ccc(Oc5ccc6c(c5)nnn6C)c(C)c4)c3n2)CC1(C)C` [Compound 89, 1-(2,2-dimethyl-4-(4-((3-methyl-4-((1-methyl-1H-benzo[d][1,2,3]triazol-5-yl)oxy)phenyl)amino)pyrido[3,2-d]pyrimidin-6-yl)piperazin-1-yl)prop-2-en-1-one] registered an IC50 of 50 to 100 nM.

For `C=CC(=O)N1CCN(c2ccc3ncnc(Nc4ccc(Oc5cc6ncnn6cn5)c(C)c4)c3n2)CC1(C)C` [Compound 328, 1-(4-(4-((4-([1,2,4]triazolo[1,5-c]pyrimidin-7-yloxy)-3-methylphenyl)amino)pyrido[3,2-d]pyrimidin-6-yl)-2,2-dimethylpiperazin-1-yl)prop-2-en-1-one], the IC50 was < 50 nM.
